From publication PMC8882856, “The affinity and selectivity of α‐adrenoceptor antagonists, antidepressants and antipsychotics for the human α2A, α2B, and α2C‐adrenoceptors and comparison with human α1 and β‐adrenoceptors” (Pharmacology Research & Perspectives, 2022)
Entries after “also recorded” stand apart in the source; their conditions may differ. Read-outs that look alike come from different tables or passages of the source. Values belong to the compound of their own block, whether it stands above or below them.

Experiments:
human α2A‐adrenoceptor [1] = target: T1, human α2A‐adrenoceptor (Homo sapiens, UniProt P08913); assay: cell-based
T1 sequence (P08913 1-465): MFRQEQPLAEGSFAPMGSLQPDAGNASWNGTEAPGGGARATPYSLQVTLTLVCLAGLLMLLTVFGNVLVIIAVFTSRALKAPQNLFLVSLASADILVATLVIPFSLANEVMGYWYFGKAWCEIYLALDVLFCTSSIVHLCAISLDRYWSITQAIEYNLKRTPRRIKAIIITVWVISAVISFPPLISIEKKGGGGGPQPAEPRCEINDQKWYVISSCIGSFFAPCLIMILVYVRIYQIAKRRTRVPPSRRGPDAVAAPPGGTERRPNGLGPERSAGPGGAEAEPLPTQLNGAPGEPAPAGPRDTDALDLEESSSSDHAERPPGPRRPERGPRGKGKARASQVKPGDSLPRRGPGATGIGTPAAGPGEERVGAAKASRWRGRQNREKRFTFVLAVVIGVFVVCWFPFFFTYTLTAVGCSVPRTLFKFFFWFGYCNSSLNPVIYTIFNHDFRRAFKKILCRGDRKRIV

human α2A‐adrenoceptor [2] = target: T1, human α2A‐adrenoceptor; assay: ^3H‐RX821002 whole cell competition binding, CHO‐α2A cells; settings: for Log KD α2A: ^3H‐RX821002 as radioligand, living CHO cells, log values, mean ± s.e.mean, ^app = apparent KD from extrapolated curve
human α2C‐adrenoceptor [3] = target: T2, human α2C‐adrenoceptor (Homo sapiens, UniProt P18825); assay: cell-based
T2 sequence (P18825 1-462): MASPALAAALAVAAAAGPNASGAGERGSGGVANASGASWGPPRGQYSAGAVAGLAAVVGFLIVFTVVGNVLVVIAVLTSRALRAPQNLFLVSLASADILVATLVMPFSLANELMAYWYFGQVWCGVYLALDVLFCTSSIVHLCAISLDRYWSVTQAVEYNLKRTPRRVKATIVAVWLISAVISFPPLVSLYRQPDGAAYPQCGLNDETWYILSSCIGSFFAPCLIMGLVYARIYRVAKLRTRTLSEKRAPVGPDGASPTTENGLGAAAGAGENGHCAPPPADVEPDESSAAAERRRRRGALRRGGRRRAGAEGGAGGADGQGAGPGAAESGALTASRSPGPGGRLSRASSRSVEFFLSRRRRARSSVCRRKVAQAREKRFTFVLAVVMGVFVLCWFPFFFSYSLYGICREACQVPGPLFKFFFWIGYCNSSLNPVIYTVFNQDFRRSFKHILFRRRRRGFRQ

human β2‐adrenoceptor = human β2‐adrenoceptor (Homo sapiens, UniProt P07550); type: binding
human α2C‐adrenoceptor [4] = target: T2, human α2C‐adrenoceptor; assay: ^3H‐rauwolscine whole cell competition binding, CHO‐α2C cells
human β1‐adrenoceptor [5] = target: T3, human β1‐adrenoceptor (Homo sapiens, UniProt P08588); assay: cell-based
human α1A‐adrenoceptor [6] = assay: whole cell binding at α1A‐adrenoceptor, identical technique, previous study [33]
human α2B‐adrenoceptor [7] = target: T4, human α2B‐adrenoceptor (Homo sapiens, UniProt P18089); assay: ^3H‐rauwolscine whole cell competition binding, CHO‐α2B cells
T4 sequence (P18089 1-450): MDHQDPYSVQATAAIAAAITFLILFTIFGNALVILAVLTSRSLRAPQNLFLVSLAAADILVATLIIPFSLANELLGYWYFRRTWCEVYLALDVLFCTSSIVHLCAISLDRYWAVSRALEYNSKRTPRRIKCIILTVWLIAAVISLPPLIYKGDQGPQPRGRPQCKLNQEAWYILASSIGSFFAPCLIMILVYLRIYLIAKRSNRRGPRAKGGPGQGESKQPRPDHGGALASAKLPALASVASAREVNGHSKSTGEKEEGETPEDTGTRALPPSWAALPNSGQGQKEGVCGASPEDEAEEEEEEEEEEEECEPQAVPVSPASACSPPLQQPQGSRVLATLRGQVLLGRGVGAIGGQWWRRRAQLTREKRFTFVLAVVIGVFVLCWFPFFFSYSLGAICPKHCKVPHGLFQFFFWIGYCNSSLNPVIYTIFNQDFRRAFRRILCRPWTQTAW

human α2C‐adrenoceptors = settings: read-out: α2C affinity, cited from earlier work
human α1A‐adrenoceptor [8] = target: human α1A‐adrenoceptor; set-up: method as in PMID 32608144; settings: identical whole cell method; ref [33]; read-out: α1A‐adrenoceptor affinity; cited from earlier work
human α2A‐adrenoceptors = settings: read-out: α2A affinity, cited from earlier work
human α2B‐adrenoceptor [9] = target: T4, human α2B‐adrenoceptor; assay: ^3H‐RX821002 whole cell competition binding, CHO‐α2B cells
human α2B‐adrenoceptor [10] = target: T4, human α2B‐adrenoceptor
human α2C‐adrenoceptor [11] = target: T2, human α2C‐adrenoceptor; assay: ^3H‐RX821002 whole cell competition binding, CHO‐α2C cells; settings: ^3H‐RX821002 as radioligand; living CHO cells; log values, mean ± s.e.mean
human β1‐adrenoceptor [12] = target: T3, human β1‐adrenoceptor
human α2A‐adrenoceptor [13] = target: T1, human α2A‐adrenoceptor; assay: ^3H‐rauwolscine whole cell competition binding, CHO‐α2A cells
human α2‐adrenoceptors = assay: ^3H‐rauwolscine whole cell binding, α2‐adrenoceptors stated without subtype; settings: across α2 subtypes, this study; read-out: affinity for the α2‐adrenoceptors
human α2C‐adrenoceptor [14] = target: T2, human α2C‐adrenoceptor
human α2A‐adrenoceptor [15] = target: T1, human α2A‐adrenoceptor
[16] = ^3H‐RX821002 membrane binding, human receptors expressed in mouse cells, ref [30]
[17] = ^3H‐rauwloscine membrane binding, human receptors expressed in COS cells, ref [28]
[18] = ^3H‐RX821002 as radioligand, living CHO cells, log values, mean ± s.e.mean, ^app = apparent KD
[19] = ^3H‐CGP12177 whole cell binding, log values, mean ± s.e.mean, ^app = apparent KD, 'no binding to' = log top concentration

T3 sequence (P08588 whole entry): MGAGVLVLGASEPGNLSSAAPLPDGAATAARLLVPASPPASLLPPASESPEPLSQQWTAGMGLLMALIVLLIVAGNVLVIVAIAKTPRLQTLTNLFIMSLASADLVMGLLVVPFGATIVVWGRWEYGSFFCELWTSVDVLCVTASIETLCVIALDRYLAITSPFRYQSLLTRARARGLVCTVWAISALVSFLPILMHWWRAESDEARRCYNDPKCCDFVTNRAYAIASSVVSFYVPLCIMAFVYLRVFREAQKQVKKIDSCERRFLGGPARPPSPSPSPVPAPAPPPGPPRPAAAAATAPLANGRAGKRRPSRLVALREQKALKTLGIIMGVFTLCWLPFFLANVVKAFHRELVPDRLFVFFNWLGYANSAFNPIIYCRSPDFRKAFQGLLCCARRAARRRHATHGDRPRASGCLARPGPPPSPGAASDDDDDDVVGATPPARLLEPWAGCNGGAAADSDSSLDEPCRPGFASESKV
Sequence of human β2‐adrenoceptor (P07550 whole entry): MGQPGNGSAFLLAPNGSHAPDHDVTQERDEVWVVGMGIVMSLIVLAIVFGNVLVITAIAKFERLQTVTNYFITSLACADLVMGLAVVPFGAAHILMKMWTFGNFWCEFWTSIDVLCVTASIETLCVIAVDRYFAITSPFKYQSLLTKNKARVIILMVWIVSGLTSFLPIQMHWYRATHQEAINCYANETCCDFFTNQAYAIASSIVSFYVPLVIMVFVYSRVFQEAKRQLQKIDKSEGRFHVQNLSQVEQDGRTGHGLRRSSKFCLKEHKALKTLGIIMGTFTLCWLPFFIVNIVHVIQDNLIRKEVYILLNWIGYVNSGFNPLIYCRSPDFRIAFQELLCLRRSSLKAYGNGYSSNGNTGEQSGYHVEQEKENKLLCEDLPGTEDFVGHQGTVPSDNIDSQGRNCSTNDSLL

Kd (human α2A‐adrenoceptor [1]): 288 nM
Kd (human α2A‐adrenoceptor [2]): 263 nM
SMILES: COc1ccccc1OCCNCC(O)COc1cccc2[nH]c3ccccc3c12 (stereo not shown) [carvedilol]

SMILES: COc1ccccc1N1CCN(CC(O)COc2cccc3ccccc23)CC1 (stereo not shown) [naftapidil]
Kd (human α2A‐adrenoceptor [1]): 282 nM
Kd (human α2C‐adrenoceptor [3]): 67.6 nM
Kd (human β2‐adrenoceptor; ^3H‐CGP12177 whole cell binding, log values, mean ± s.e.mean, ^app = apparent KD, 'no binding to' = log top concentration, read-out: Log KD β2 (converted)): 35.5 nM
Kd (human β2‐adrenoceptor; this study, read-out: β2‐adrenoceptor affinity): ~30 nM
Selectivity ratio α2A vs α2C (higher affinity for α2C) (human α2C‐adrenoceptor [4]; ratio of KD values): 4.2
Selectivity ratio α2B vs α2C (higher affinity for α2C) (human α2C‐adrenoceptor [4]; ratio of KD values): 3.7
Kd (human β1‐adrenoceptor [5]): 1070 nM
α1A‐affinity greater than β2‐affinity (human α1A‐adrenoceptor [6]): 3 fold
Kd (human α2B‐adrenoceptor [7]): 251 nM
Selectivity ratio α2A vs α2B (higher affinity for α2B) (human α2B‐adrenoceptor [7]; ratio of KD values): 1.1

SMILES: CN(C)CCCN1c2ccccc2Sc2ccc(Cl)cc21 [chlorpromazine]
Kd (human α2C‐adrenoceptors; [16]): 85 nM
Kd (human α2C‐adrenoceptors; [17]): 41 nM
Kd (human α1A‐adrenoceptor [8]): 1 nM
Kd (human α2A‐adrenoceptors; ^3H‐RX821002 membrane binding to human platelets, ref [23]): 2240 nM
Kd (human α2A‐adrenoceptors; ^3H‐RX821002 membrane binding, human receptors expressed in CHO cells, ref [29]): 600 nM
Kd (human α2A‐adrenoceptors; [16]): 1010 nM
Kd (human α2A‐adrenoceptors; [17]): 78 nM

SMILES: CN1CC[C@]2(CCN3CCc4c(oc5ccccc45)[C@@H]3C2)N(C)C1=O [MK‐912]
IC50 (log) β2, IC50>top concentration used (human β2‐adrenoceptor): IC50>−4
Log KD α2B (human α2B‐adrenoceptor [9]; [18]): −8.23 ± 0.11
Kd (human α2B‐adrenoceptor [10]): 6.92 nM
Log KD α2C (human α2C‐adrenoceptor [4]): −9.82 ± 0.11
Selectivity ratio α2A vs α2C (higher affinity for α2C) (human α2C‐adrenoceptor [4]): 12.9
Selectivity ratio α2B vs α2C (higher affinity for α2C) (human α2C‐adrenoceptor [4]): 45.7
selectivity for α2C over α2A (human α2C‐adrenoceptor [4]): 13 fold
selectivity for α2C over α2B (human α2C‐adrenoceptor [4]): 46 fold
Kd (human α2C‐adrenoceptor [4]; read-out: α2C‐affinity): 0.15 nM
Log KD α2C (human α2C‐adrenoceptor [11]): −10.00 ± 0.15
IC50 (log) β1, IC50>top concentration used (human β1‐adrenoceptor [12]): IC50>−4
Log KD α2A (human α2A‐adrenoceptor [2]): −8.76 ± 0.05
Log KD α2A (human α2A‐adrenoceptor [13]): −8.71 ± 0.05
Selectivity ratio α2A vs α2B (higher affinity for α2A) (human α2A‐adrenoceptor [13]): 3.6

SMILES: COc1cccc(OC)c1OCCNCC1COc2ccccc2O1 (stereo not shown) [WB4104]
IC50 (log) β2, IC50>top concentration used (human β2‐adrenoceptor; ^3H‐CGP12177, log value): IC50>−4
Log KD α2B (human α2B‐adrenoceptor [9]): −6.88 ± 0.05
Log KD α2C (human α2C‐adrenoceptor [4]): −8.17 ± 0.05
Selectivity ratio α2A vs α2C (higher affinity for α2C) (human α2C‐adrenoceptor [4]): 4.2
Selectivity ratio α2B vs α2C (higher affinity for α2C) (human α2C‐adrenoceptor [4]): 25.1
Log KD α2C (human α2C‐adrenoceptor [11]): −8.24 ± 0.13
IC50 (log) β1, IC50>top concentration used (human β1‐adrenoceptor [12]; ^3H‐CGP12177, log value): IC50>−4
Log KD α2A (human α2A‐adrenoceptor [2]): −7.58 ± 0.05
Log KD α2A (human α2A‐adrenoceptor [13]): −7.55 ± 0.05
Selectivity ratio α2A vs α2B (higher affinity for α2A) (human α2A‐adrenoceptor [13]): 6.0
Log KD α2B (human α2B‐adrenoceptor [7]): −6.77 ± 0.05

SMILES: CCN1CCCC1CNC(=O)c1cc(S(=O)(=O)CC)c(N)cc1OC (stereo not shown) [amisulpiride]
Log KD β2 (human β2‐adrenoceptor): No binding to −4; also recorded: No binding to -4
Log KD α2C (human α2C‐adrenoceptor [4]): −5.57 ± 0.07
Selectivity ratio α2A vs α2C (higher affinity for α2C) (human α2C‐adrenoceptor [4]): 2.9
Selectivity ratio α2B vs α2C (higher affinity for α2C) (human α2C‐adrenoceptor [4]): 7.6
Log KD β1 (human β1‐adrenoceptor [12]): No binding to −4; also recorded: No binding to -4
Kd (human α2‐adrenoceptors): > 1000 nM
Log KD α2A (human α2A‐adrenoceptor [13]): −5.11 ± 0.09^app
Selectivity ratio α2A vs α2B (higher affinity for α2A) (human α2A‐adrenoceptor [13]): 2.6
Log KD α2B (human α2B‐adrenoceptor [7]): −4.69 ± 0.13^app

Kd (human α2C‐adrenoceptor [14]): 7.24 nM
Kd (human α2A‐adrenoceptor [15]): 7.94 nM
Log KD β2 (human β2‐adrenoceptor; [19]): −3.95 ± 0.11^app
Log KD α2B (human α2B‐adrenoceptor [9]; [18]): −7.67 ± 0.04
Kd (human α2B‐adrenoceptor [10]): 35.5 nM
Selectivity ratio α2A vs α2C (higher affinity for α2C) (human α2C‐adrenoceptor [4]; ratio of KD values): 1.1
Selectivity ratio α2B vs α2C (higher affinity for α2C) (human α2C‐adrenoceptor [4]; ratio of KD values): 4.9
Log KD α2C (human α2C‐adrenoceptor [11]): −8.28 ± 0.07
Log KD β1 (human β1‐adrenoceptor [12]; [19]): −4.55 ± 0.05
Log KD α2A (human α2A‐adrenoceptor [2]): −8.23 ± 0.02
Selectivity ratio α2A vs α2B (higher affinity for α2A) (human α2A‐adrenoceptor [13]; ratio of KD values): 4.5
SMILES: COC1(C2=NCCN2)COc2ccccc2O1 (stereo not shown) [RX821002]
